The values below come from patent US20240156094A1, “MELATONIN COMPOSITION WITH METALS AND A METHOD FOR ENHANCING ENZYMATIC REACTIONS AND METABOLIC PATHWAYS IN PLANTS” (FERTIS INDIA PVT. LTD., priority 2021, published 2024).

Holding throughout (format): in vivo
Experiment [1] has as its system plants. The experiment in a line: Total protein content (Lowry method, absorbance at 660 nm). The following applies: 1 g of sample in 25 ml. On the procedure: Total protein content in the sample content were estimated by performing Lowry method which include the following steps:— • 1 g of samples in 25 ml were filtered through whatman filter paper 1 • 4.5 ml of a reagent comprising NaOH, sodium potassium tartrate, and CuSO4.5H2O were added and incubated for 10 mins. • After incubation, 0.5 ml of Folin-Ciocalteu's phenol reagent were added and incubated for 30 mins. • Absorbance was measured with UV Vis Spectrophotometer At 660 nm and a standard graph was plotted.

In a further experiment the test system is paddy grains. The experiment can be described thus: Analysis of micronutrient absorption levels in paddy grains by ICP. The following applies: paddy grain powder, acid digest. How it is done:
Analysis of Micronutrients in Paddy Samples by ICP (Inductive Coupled Plasma) Equipment.
The method include the steps of:— • 1. 1 gm of grain powder was added to 60 ml of perchloric acid and Nitric acid (9:1) and were digested overnight. • 2. Heat the mixtures at 100 c for 2 hours until vapors change from red to white color. • 3. The resultant solution was filtered through a Whatman paper and makeup to 100 ml with 1% nitric acid. • 4. The solution was tested for micronutrients by ICP.

Experiment [2] concerns plants. The experiment in a line: Total polyphenol content (Folin-Ciocalteu, absorbance at 765 nm). The note with it: 1 g test sample, 70% methanol extract. How it is done:
Total polyphenol content were estimated by performing the following steps:— • 10-15 ml of 70% MeOH (70 ml methanol: 30 ml water) were added to 1 g of test sample • Filter through whatman filter paper 1 and was made up to 25 ml with 70% methanol. • 5 ml of folin ciocalteu's phenol reagent were added. • Incubation for 5 mins. • 4 ml of 7.5% Na2CO3 were added and incubated for 1 hr. • absorbance was measured at 765 nm.

Each structure is given as a SMILES string.

On to `COc1ccc2[nH]cc(CCNC(C)=O)c2c1` [Melatonin, N-Acetyl-5-methoxytryptamine], for which the “Total Protein content in %” value in the experiment on plants [1] was determined as 0.076%. Moreover, in the experiment on paddy grains, the Al is listed as 241.3 ppm, the B was 40.5 ppm, the Ca is listed as 405.7 ppm and the Co was 15.4 ppm. In the experiment on paddy grains, this compound showed a Fe of 257.9 ppm, a Mg of 697.2 ppm, a Mn of 42.5 ppm and a Zn of 29.1 ppm. For the same compound, the “Total Phenol content in ppm” value in the experiment with plants [2] was 18.6 ppm.
